pEC50: −log10 of the molar value.

The record followed here is patent US10584115B2, “Substituted pyridine and pyrazine BMI-1 inhibitors” (PTC Therapeutics, Inc., priority 2013, dated 2020).

The first assay relates to Bmi-1 protein. In words: Sandwich ELISA Assay (Bmi-1 protein level in HT-1080 cells after compound treatment). Format: cell-based. The settings on record: Table 1, Bmi-1 sandwich ELISA, read-out: ELISA EC50 value for Bmi-1 protein. A digest of the protocol: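 Sandwich ELISA quantified Bmi-1 protein against recombinant standard (125–8000 pg/mL), with lysates captured overnight at 4 °C and signal by HRP/TMB at 450 nm (570 nm reference). Lysates came from HT-1080 cells incubated 40–48 h with test compounds in 0.5% DMSO.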
With `Cc1nc2cc(F)c(F)cc2n1-c1cc(N)cc(Nc2ccc(Cl)cc2)n1` [compound 658, N^2-(4-chlorophenyl)-6-(5,6-difluoro-2-methyl-1H-benzimidazol-1-yl)pyridine-2,4-diamine], the pEC50 was 7.00 to 8.00.
Same read-out and setting: the same measure for `COc1cccc(Nc2cncc(-c3c(C)nn4ccccc34)n2)c1` [compound 569, N-(3-methoxyphenyl)-6-(2-methylpyrazolo[1,5-a]pyridin-3-yl)pyrazin-2-amine]: 7.00 to 8.00; for `CCc1nn2ccccc2c1-c1cncc(Nc2cccc(OC)c2)n1` [compound 640, 6-(2-ethylpyrazolo[1,5-a]pyridin-3-yl)-N-(3-methoxyphenyl)pyrazin-2-amine]: 7.00 to 8.00.
On the same count and under the same terms, for `Cc1nc2ncc(Cl)cc2n1-c1cc(C#N)cc(Nc2ccc(C(F)(F)F)cc2)n1` [compound 419, 2-(6-chloro-2-methyl-1H-imidazo[4,5-b]pyridin-1-yl)-6-{[4-(trifluoromethyl)phenyl]amino}pyridine-4-carbonitrile] the value was 8.00 to 9.00; for `COC1CCc2nc(C)c(-c3cncc(Nc4ccc(C(F)(F)F)cc4)n3)n2C1` (stereo not shown) [compound 409, 6-(6-methoxy-2-methyl-5,6,7,8-tetrahydroimidazo[1,2-a]pyridin-3-yl)-N-[4-(trifluoromethyl)phenyl]pyrazin-2-amine], 8.00 to 9.00; for `FC(F)Oc1ccc(Nc2cccc(-n3c(C(F)(F)F)nc4ccccc43)n2)cc1` [Cpd 38, N-[4-(difluoromethoxy)phenyl]-6-[2-(trifluoromethyl)-1H-benzimidazol-1-yl]pyridin-2-amine], 7.00 to 8.00.
On the same count and under the same terms, for `CNc1nc2ccccc2n1-c1cncc(Nc2ccc(OC(F)F)cc2)n1` [compound 187, 1-(6-{[4-(difluoromethoxy)phenyl]amino}pyrazin-2-yl)-N-methyl-1H-benzimidazol-2-amine] the value was 8.00 to 9.00; for `CCc1ccc(Nc2cncc(-n3c(C)nc4ccccc43)n2)cc1` [compound 662, N-(4-ethylphenyl)-6-(2-methyl-1H-benzimidazol-1-yl)pyrazin-2-amine], 5.52 to 7.00; for `Cc1nc2ncc(Cl)cc2n1-c1cc(C#N)cc(Nc2ccc(OC(F)F)cc2)n1` [compound 428, 2-(6-chloro-2-methyl-1H-imidazo[4,5-b]pyridin-1-yl)-6-{[4-(difluoromethoxy)phenyl]amino}pyridine-4-carbonitrile], 8.00 to 9.00.
For `OCc1nc2ccccn2c1-c1cncc(Nc2ccc(OC(F)(F)F)cc2)n1` [compound 213, [3-(6-{[4-(trifluoromethoxy)phenyl]amino}pyrazin-2-yl)imidazo[1,2-a]pyridin-2-yl]methanol], the pEC50 was 5.52 to 7.00.
With `CNc1nc2ccccc2n1-c1cncc(Nc2ccc(OC(F)(F)F)cc2)n1` [compound 183, N-methyl-1-(6-{[4-(trifluoromethoxy)phenyl]amino}pyrazin-2-yl)-1H-benzimidazol-2-amine], the negative logarithm of the EC50 (pEC50) is 7.00 to 8.00.
Same read-out and setting: the same measure for `Cc1nc2c(F)cc(F)cc2n1-c1cc(C#N)cc(Nc2ccc(OC(F)F)cc2)n1` [Cpd 448, 2-{[4-(difluoromethoxy)phenyl]amino}-6-(4,6-difluoro-2-methyl-1H-benzimidazol-1-yl)pyridine-4-carbonitrile]: 7.00 to 8.00; for `COC(=O)c1ccc(Nc2cncc(-n3c(C)nc4ccccc43)n2)cc1` [compound 133, methyl 4-{[6-(2-methyl-1H-benzimidazol-1-yl)pyrazin-2-yl]amino}benzoate]: 7.00 to 8.00.
With `COc1ccc2nc(C(F)(F)F)c(-c3cccc(Nc4ccc(O)cc4)n3)n2c1` [compound 113, 4-({6-[6-methoxy-2-(trifluoromethyl)imidazo[1,2-a]pyridin-3-yl]pyridin-2-yl}amino)phenol], the negative logarithm of the EC50 (pEC50) was 5.52 to 7.00.
Same read-out and setting: the same measure for `CCc1nc2ccccc2n1-c1cc(N)cc(Nc2ccc(C(F)(F)F)cc2)n1` [compound 510, 6-(2-ethyl-1H-benzimidazol-1-yl)-N^2-[4-(trifluoromethyl)phenyl]pyridine-2,4-diamine]: 7.00 to 8.00; for `CNc1nc2ccccc2n1-c1cncc(Nc2ccc(C(F)(F)F)cc2)n1` [compound 61, N-methyl-1-(6-{[4-(trifluoromethyl)phenyl]amino}pyrazin-2-yl)-1H-benzimidazol-2-amine]: 8.00 to 9.00; for `Cc1nc2ccccc2n1-c1cncc(Nc2ccc(Cl)cc2)n1` [compound 20, N-(4-chlorophenyl)-6-(2-methyl-1H-benzimidazol-1-yl)pyrazin-2-amine]: 7.00 to 8.00.
With `FC(F)(F)c1ccc(Nc2cccc(-n3c(C(F)(F)F)nc4ccccc43)n2)cc1` [Cpd 40, 6-[2-(trifluoromethyl)-1H-benzimidazol-1-yl]-N-[4-(trifluoromethyl)phenyl]pyridin-2-amine], the negative logarithm of the EC50 (pEC50) is 5.52 to 7.00.
As for `Fc1cnc2nc(C3CC3)n(-c3cncc(Nc4ccc(C(F)(F)F)cc4)n3)c2c1` [compound 293, 6-(2-cyclopropyl-6-fluoro-1H-imidazo[4,5-b]pyridin-1-yl)-N-[4-(trifluoromethyl)phenyl]pyrazin-2-amine], the negative logarithm of the EC50 (pEC50) was 7.00 to 8.00.
Regarding `CCc1nc2ncc(F)cc2n1-c1cncc(Nc2ccc(C(F)(F)F)c(F)c2)n1` [compound 374, 6-(2-ethyl-6-fluoro-1H-imidazo[4,5-b]pyridin-1-yl)-N-[3-fluoro-4-(trifluoromethyl)phenyl]pyrazin-2-amine], the negative-log EC50 (pEC50) is 7.00 to 8.00.
As to `CCc1nn2ccccc2c1-c1cc(C#N)cc(Nc2ccc(OC(F)F)cc2)n1` [compound 527, 2-{[4-(difluoromethoxy)phenyl]amino}-6-(2-ethylpyrazolo[1,5-a]pyridin-3-yl)pyridine-4-carbonitrile], the negative logarithm of the EC50 (pEC50) was 7.00 to 8.00.
On the same count and under the same terms, the same measure for `Cc1nc2ncc(F)cc2n1-c1cncc(Nc2ccc(C(F)(F)F)cc2)n1` [compound 270, 6-(6-fluoro-2-methyl-1H-imidazo[4,5-b]pyridin-1-yl)-N-[4-(trifluoromethyl)phenyl]pyrazin-2-amine]: 8.00 to 9.00.
Still for that read-out and setting: for `Cc1nc2c(n1-c1cncc(Nc3ccc(C(F)(F)F)cc3)n1)CCCC2` [compound 267, 6-(2-methyl-4,5,6,7-tetrahydro-1H-benzimidazol-1-yl)-N-[4-(trifluoromethyl)phenyl]pyrazin-2-amine] the value was 8.00 to 9.00; for `Cc1nc2ccc(F)cc2n1-c1cncc(Nc2ccc(C(F)(F)F)nc2)n1` [compound 432, 6-(6-fluoro-2-methyl-1H-benzimidazol-1-yl)-N-[6-(trifluoromethyl)pyridin-3-yl]pyrazin-2-amine], 7.00 to 8.00; for `Cc1nn(C)c(Cl)c1-c1cncc(Nc2ccc(OC(F)F)c(F)c2)n1` [compound 415, 6-(5-chloro-1,3-dimethyl-1H-pyrazol-4-yl)-N-[4-(difluoromethoxy)-3-fluorophenyl]pyrazin-2-amine], 7.00 to 8.00.
For `COCCn1nc(C)c(-c2cncc(Nc3ccc(C(F)(F)F)cc3)n2)c1C` [compound 399, 6-[1-(2-methoxyethyl)-3,5-dimethyl-1H-pyrazol-4-yl]-N-[4-(trifluoromethyl)phenyl]pyrazin-2-amine], the negative logarithm of the EC50 (pEC50) is 8.00 to 9.00.
On to `Cc1nc2ccccc2n1-c1cncc(Nc2ccc(C(F)(F)F)c(CO)c2)n1` [compound 519], for which the pEC50 was 7.00 to 8.00.
Take `CCc1nn2ccccc2c1-c1cncc(Nc2ccc(C(F)(F)F)cc2)n1` [compound 520, 6-(2-ethylpyrazolo[1,5-a]pyridin-3-yl)-N-[4-(trifluoromethyl)phenyl]pyrazin-2-amine]: the pEC50 is 8.00 to 9.00.
The same measure, in the same setting: for `Cc1nc2cc(Cl)c(Cl)cc2n1-c1cncc(Nc2ccc(C(F)(F)F)cc2)n1` [compound 193, 6-(5,6-dichloro-2-methyl-1H-benzimidazol-1-yl)-N-[4-(trifluoromethyl)phenyl]pyrazin-2-amine] the value was 7.00 to 8.00; for `COc1cccc(Nc2cncc(-n3c(C)nc4cc(F)c(F)cc43)n2)c1` [compound 578, 6-(5,6-difluoro-2-methyl-1H-benzimidazol-1-yl)-N-(3-methoxyphenyl)pyrazin-2-amine], 5.52 to 7.00.
Same read-out and setting: the same measure for `Cc1nn2ccccc2c1-c1cncc(Nc2cccc(Cl)c2)n1` [compound 570, N-(3-chlorophenyl)-6-(2-methylpyrazolo[1,5-a]pyridin-3-yl)pyrazin-2-amine]: 5.52 to 7.00.
The same measure, in the same setting: for `Cc1nc2cc(F)ccc2n1-c1cncc(Nc2ccc(Cl)nc2)n1` [compound 426, N-(6-chloropyridin-3-yl)-6-(5-fluoro-2-methyl-1H-benzimidazol-1-yl)pyrazin-2-amine] the value was 5.52 to 7.00; for `Cc1nc2ccc(F)cc2n1-c1cncc(Nc2ccc(Cl)c(F)c2)n1` [compound 654, N-(4-chloro-3-fluorophenyl)-6-(6-fluoro-2-methyl-1H-benzimidazol-1-yl)pyrazin-2-amine], 7.00 to 8.00; for `C/C(=N\O)c1ccc(Nc2cncc(-n3c(C)nc4ccccc43)n2)cc1` [compound 156, N-{4-[(1E)-N-hydroxyethanimidoyl]phenyl}-6-(2-methyl-1H-benzimidazol-1-yl)pyrazin-2-amine], 8.00 to 9.00.

Still in this assay, the particulars now being: read-out: ELISA EC50 value for Bmi-1 protein, Table 1, Bmi-1 sandwich ELISA.
Take `Cc1nc2c(F)cc(F)cn2c1-c1cncc(Nc2ccc(C(F)(F)F)cc2)n1` [compound 254, 6-(6,8-difluoro-2-methylimidazo[1,2-a]pyridin-3-yl)-N-[4-(trifluoromethyl)phenyl]pyrazin-2-amine]: the negative-log EC50 (pEC50) was 8.00 to 9.00.
On the same count and under the same terms, the same measure for `O=[N+]([O-])c1cc(Nc2ccc(C(F)(F)F)cc2)nc(-c2c(C(F)(F)F)nc3ccc(F)cn23)c1` [compound 286, 6-[6-fluoro-2-(trifluoromethyl)imidazo[1,2-a]pyridin-3-yl]-4-nitro-N-[4-(trifluoromethyl)phenyl]pyridin-2-amine]: 7.00 to 8.00.
For the molecule `NC(=O)c1cc(Nc2ccc(C(F)(F)F)cc2)nc(-c2c(C(F)(F)F)nc3ccccn23)c1` [Cpd 189, 2-[2-(trifluoromethyl)imidazo[1,2-a]pyridin-3-yl]-6-{[4-(trifluoromethyl)phenyl]amino}pyridine-4-carboxamide], the negative-log EC50 (pEC50) was 7.00 to 8.00.

A word on the pEC50: it is the EC50 on a negative log10 scale, so that one unit is a factor of ten.
